Test [1] has as its target T1, TGF-β R1 ALK5 (Homo sapiens, UniProt P36897).
T1 construct: purchased Invitrogen PV5837
T1 sequence (P36897 34-503): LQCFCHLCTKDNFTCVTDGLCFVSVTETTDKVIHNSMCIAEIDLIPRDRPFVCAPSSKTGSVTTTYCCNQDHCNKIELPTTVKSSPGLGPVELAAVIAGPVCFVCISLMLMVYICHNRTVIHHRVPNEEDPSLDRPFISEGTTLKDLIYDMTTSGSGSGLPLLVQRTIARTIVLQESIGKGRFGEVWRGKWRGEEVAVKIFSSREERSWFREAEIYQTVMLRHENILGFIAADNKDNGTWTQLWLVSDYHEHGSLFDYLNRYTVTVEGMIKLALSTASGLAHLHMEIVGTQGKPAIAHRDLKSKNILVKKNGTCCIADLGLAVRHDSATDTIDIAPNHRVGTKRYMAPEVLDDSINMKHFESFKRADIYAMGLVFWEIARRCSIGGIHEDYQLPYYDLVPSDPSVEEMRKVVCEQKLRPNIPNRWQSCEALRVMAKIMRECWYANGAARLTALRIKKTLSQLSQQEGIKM
Kind of test: In vitro inhibition of ALK5 (LanthaScreen activity assay, TR-FRET). It is filed as biochemical. (In general: Time-resolved FRET reads energy transfer from a long-lived donor to a nearby acceptor.)

The target of test [2] is T2, cellular TGF-β R1 ALK5 (Homo sapiens, UniProt P36897).
T2 construct: host or cells: CellSensor SBE-bla HEK 293T
T2 sequence (P36897 34-503): T1 sequence (P36897 34-503)
The experiment in a line: Cellular inhibition of ALK5 (CellSensor SBE-bla HEK 293T beta-lactamase reporter). Type of test: cell-based. To be noted: cellular inhibition of ALK5, SBE-bla HEK 293T cells, TGFb-1 stimulated 5 hours; average where measured in multiple experiments. Put shortly:
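pIC50 derives from non-linear fitting of percent inhibition of the 460/530 nm CCF4-AM emission ratio, relative to DMSO+TGF-β wells. HEK 293T SBE-bla cells received compound (0.5% DMSO) for 1 h, TGFb-1 (100 ng/mL stock) for 5 h at 37 °C, then substrate 2 h at RT.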

Usually IC50 stands for the point on the concentration scale where inhibition reaches its midpoint. A low value points to greater potency.

Take `Cc1cnc(-c2cc(Cl)ccc2F)cc1Nc1ccnc2cnn(C(=O)NC(C)C)c12` [Example 54, 7-(2-(5-chloro-2-fluorophenyl)-5-methylpyridin-4-ylamino)-N-isopropyl-1H-pyrazolo[4,3-b]pyridine-1-carboxamide]: the IC50 in test [1] is 63.1 nM; in test [2], 100 nM.

As to `Cc1cnc(-c2cc(Cl)ccc2F)cc1Nc1ccnc2cn(C(C)(C)C(N)=O)nc12` [Example 55, 2-(7-(2-(5-chloro-2-fluorophenyl)-5-methylpyridin-4-ylamino)-2H-pyrazolo[4,3-b]pyridin-2-yl)-2-methylpropanamide], the IC50 in test [1] was 79.4 nM; in test [2] it was 631 nM.

Turning to `Cc1ccc(F)c(-c2cc(Nc3ccnc4cn(CC(=O)NC5CC5)nc34)c(C)cn2)n1` [Example 118, N-cyclopropyl-2-(7-(3′-fluoro-5,6′-dimethyl-2,2′-bipyridin-4-ylamino)-2H-pyrazolo[4,3-b]pyridin-2-yl)acetamide], the half-inhibitory concentration (IC50) in test [1] was 100 nM; in test [2] it was 794 nM.

For the compound `Cc1ccc(F)c(-c2cc(Nc3ccnc4cnn(CC(C)(C)O)c34)ccn2)n1` [Example 70, 1-(7-(3′-fluoro-6′-methyl-2,2′-bipyridin-4-ylamino)-1H-pyrazolo[4,3-b]pyridin-1-yl)-2-methylpropan-2-ol], the figures for the IC50 in test [1] and in test [2] were 15.8 nM and 31.6 nM, respectively.

In the case of `Cc1ccc(F)c(-c2cc(Nc3ccnc4cnn(CC(O)C(F)(F)F)c34)ccn2)n1` (centres unmarked) [Example 113, 1,1,1-trifluoro-3-(7-(3′-fluoro-6′-methyl-2,2′-bipyridin-4-ylamino)-1H-pyrazolo[4,3-b]pyridin-1-yl)propan-2-ol], the IC50 in test [1] is 50.1 nM; in test [2], 1580 nM.

Turning to `CNC(=O)n1ncc2nccc(Nc3cc(-c4cc(Cl)ccc4F)ncc3C)c21` [Example 52, 7-(2-(5-chloro-2-fluorophenyl)-5-methylpyridin-4-ylamino)-N-methyl-1H-pyrazolo[4,3-b]pyridine-1-carboxamide], the IC50 in test [1] and in test [2] was 31.6 nM each time.

In the case of `CCCn1ncc2nccc(Nc3ccnc(-c4cc(Cl)ccc4F)c3)c21` [Example 18, N-(2-(5-chloro-2-fluorophenyl)pyridin-4-yl)-1-propyl-1H-pyrazolo[4,3-b]pyridin-7-amine], the IC50 was 50.1 nM in test [1] and 631 nM in test [2].

Consider `CCNC(=O)n1ncc2nccc(Nc3ccnc(-c4cc(F)ccc4F)c3)c21` [Example 93, 7-(2-(2,5-difluorophenyl)pyridin-4-ylamino)-N-ethyl-1H-pyrazolo[4,3-b]pyridine-1-carboxamide], for which the results for the concentration for half-maximal inhibition (IC50) in test [1] and in test [2] were 5.01 nM and 25.1 nM, respectively.

In the case of `Cn1cc2nccc(Nc3ccnc(-c4cccc(Cl)c4)c3)c2n1` [Example 48, N-(2-(3-chlorophenyl)pyridin-4-yl)-2-methyl-2H-pyrazolo[4,3-b]pyridin-7-amine], the IC50 in test [1] and in test [2] was 200 nM in each case.

As to `CNC(=O)Cn1cc2nccc(Nc3cc(-c4cc(F)ccc4F)ncc3C)c2n1` [Example 158, 2-(7-(2-(2,5-difluorophenyl)-5-methylpyridin-4-ylamino)-2H-pyrazolo[4,3-b]pyridin-2-yl)-N-methylacetamide], the IC50 in test [1] is 6.31 nM; in test [2] it was 126 nM.

In the case of `Cc1ccc(F)c(-c2cc(Nc3ccnc4cn(C[C@H](C)O)nc34)c(C)cn2)n1` [Example 149, (S)-1-(7-(3′-fluoro-5,6′-dimethyl-2,2′-bipyridin-4-ylamino)-2H-pyrazolo[4,3-b]pyridin-2-yl)propan-2-ol], the IC50 in test [1] is 6.31 nM; in test [2], 79.4 nM.

In the case of `Cc1cnc(-c2cc(Cl)ccc2F)cc1Nc1ccnc2cn(CC(N)=O)nc12` [Example 50, 2-(7-(2-(5-chloro-2-fluorophenyl)-5-methylpyridin-4-ylamino)-2H-pyrazolo[4,3-b]pyridin-2-yl)acetamide], the IC50 was 15.8 nM in test [1] and 12.6 nM in test [2].

Turning to `Cc1cnc(-c2cc(Cl)ccc2F)nc1Nc1ccnc2cn[nH]c12` [Example 1, N-(2-(5-chloro-2-fluorophenyl)-5-methylpyrimidin-4-yl)-1H-pyrazolo[4,3-b]pyridin-7-amine], the IC50 in test [1] is 10 nM; in test [2] it was 50.1 nM.

Consider `CCNC(=O)n1ncc2nccc(Nc3nc(-c4cc(F)ccc4F)ncc3C)c21` [Example 97, 7-(2-(2,5-difluorophenyl)-5-methylpyrimidin-4-ylamino)-N-ethyl-1H-pyrazolo[4,3-b]pyridine-1-carboxamide], for which the IC50 in test [1] is 15.8 nM; in test [2], 398 nM.

Turning to `CNC(=O)n1ncc2nccc(Nc3ccnc(-c4cc(Cl)ccc4F)c3)c21` [Example 32, 7-(2-(5-chloro-2-fluorophenyl)pyridin-4-ylamino)-N-methyl-1H-pyrazolo[4,3-b]pyridine-1-carboxamide], the IC50 in test [1] and in test [2] was 50.1 nM throughout.

As for `Cc1ccc(F)c(-c2cc(Nc3c(F)cnc4cn(CC(N)=O)nc34)c(C)cn2)n1` [Example 88, 2-(6-fluoro-7-(3′-fluoro-5,6′-dimethyl-2,2′-bipyridin-4-ylamino)-2H-pyrazolo[4,3-b]pyridin-2-yl)acetamide], the IC50 is 10 nM in test [1] and 158 nM in test [2].

With `CNC(=O)Cn1ncc2nccc(Nc3ccnc(-c4cc(Cl)ccc4F)c3)c21` [Example 31, 2-(7-(2-(5-chloro-2-fluorophenyl)pyridin-4-ylamino)-1H-pyrazolo[4,3-b]pyridin-1-yl)-N-methylacetamide], the IC50 in test [1] and in test [2] was 200 nM throughout.

Consider `Cc1ccc(F)c(-c2cc(Nc3ccnc4cn(C[C@H](O)CO)nc34)ccn2)n1` [Example 69, (S)-3-(7-(3′-fluoro-6′-methyl-2,2′-bipyridin-4-ylamino)-2H-pyrazolo[4,3-b]pyridin-2-yl)propane-1,2-diol], for which the IC50 in test [1] and in test [2] was 5010 nM in each case.

For `Cc1ccc(F)c(-c2cc(Nc3ccnc4cn(CC(F)F)nc34)ccn2)n1` [Example 104, 2-(2,2-difluoroethyl)-N-(3′-fluoro-6′-methyl-2,2′-bipyridin-4-yl)-2H-pyrazolo[4,3-b]pyridin-7-amine], the IC50 in test [1] was 79.4 nM; in test [2] it was 316 nM.

On to `CNC(=O)Cn1cc2nccc(Nc3cc(-c4nc(C)ccc4F)ncc3C)c2n1` [Example 146, 2-(7-(3′-fluoro-5,6′-dimethyl-2,2′-bipyridin-4-ylamino)-2H-pyrazolo[4,3-b]pyridin-2-yl)-N-methylacetamide], for which the IC50 in test [1] was 31.6 nM; in test [2] it was 501 nM.

Consider `CNC(=O)n1ncc2nccc(Nc3nc(-c4cc(Cl)ccc4F)ncc3C)c21` [Example 2, 7-(2-(5-chloro-2-fluorophenyl)-5-methylpyrimidin-4-ylamino)-N-methyl-1H-pyrazolo[4,3-b]pyridine-1-carboxamide], for which the results for the IC50 in test [1] and in test [2] were 6.31 nM and 79.4 nM, respectively.

For the compound `Fc1ccc(Cl)cc1-c1cc(Nc2ccnc3cn(CC4CC4)nc23)ccn1` [Example 37, N-(2-(5-chloro-2-fluorophenyl)pyridin-4-yl)-2-(cyclopropylmethyl)-2H-pyrazolo[4,3-b]pyridin-7-amine], the results for the IC50 in test [1] and in test [2] were 63.1 nM and 398 nM, respectively.

As for `OC[C@H](O)Cn1cc2nccc(Nc3ccnc(-c4cc(Cl)ccc4F)c3)c2n1` [Example 46, (R)-3-(7-(2-(5-chloro-2-fluorophenyl)pyridin-4-ylamino)-2H-pyrazolo[4,3-b]pyridin-2-yl)propane-1,2-diol], the IC50 was 63.1 nM in test [1] and 316 nM in test [2].

On to `Cc1ccc(F)c(-c2cc(Nc3ccnc4cnn(CCO)c34)c(C)cn2)n1` [Example 10, 2-(7-(3′-fluoro-5,6′-dimethyl-2,2′-bipyridin-4-ylamino)-1H-pyrazolo[4,3-b]pyridin-1-yl)ethanol], for which the IC50 in test [1] was 10 nM; in test [2], 20 nM.

Consider `CCn1cc2nccc(Nc3ccnc(-c4nc(C)ccc4F)c3)c2n1` [Example 125, 2-ethyl-N-(3′-fluoro-6′-methyl-2,2′-bipyridin-4-yl)-2H-pyrazolo[4,3-b]pyridin-7-amine], for which the IC50 in test [1] is 15.8 nM; in test [2] it was 39.8 nM.

On to `Cc1ccc(F)c(-c2cc(Nc3ccnc4cnn(CCC(C)(C)O)c34)ccn2)n1` [Example 135, 4-(7-(3′-fluoro-6′-methyl-2,2′-bipyridin-4-ylamino)-1H-pyrazolo[4,3-b]pyridin-1-yl)-2-methylbutan-2-ol], for which the half-maximal inhibitory concentration (IC50) in test [1] was 15.8 nM; in test [2], 50.1 nM.

On to `Cc1ccc(F)c(-c2cc(Nc3ccnc4cn(C(C)C)nc34)ccn2)n1` [Example 68, N-(3′-fluoro-6′-methyl-2,2′-bipyridin-4-yl)-2-isopropyl-2H-pyrazolo[4,3-b]pyridin-7-amine], for which the IC50 in test [1] and in test [2] was 1260 nM throughout.

Take `Cc1ccc(F)c(-c2cc(Nc3ccnc4cn(C[C@H](O)CO)nc34)c(C)cn2)n1` [Example 7, (S)-3-(7-(3′-fluoro-5,6′-dimethyl-2,2′-bipyridin-4-ylamino)-2H-pyrazolo[4,3-b]pyridin-2-yl)propane-1,2-diol]: the IC50 was 15.8 nM in test [1] and 200 nM in test [2].

Values taken from patent US9073918B2, “Pyrazolo[4,3-b]pyridine-7-amine inhibitors of ALK5” (Takeda Pharmaceutical Company Limited, priority 2010, dated 2015).
